According to US20170218397A1, “C[…] GENE THERAPY VECTOR FOR […] CELL MO[…] ANTI HIV GENE THERAPY” (Texas Tech University System, priority 2014, published 2017):

Tests used:
HIV = test: Viability, HIV replication and cytopathic effect in transduced T cells infected with HIV with GCV; assay type: cell-based
Source text: FIG. 10 depicts photographic images of cells in accordance with experimental embodiments.

[1] = herpes (CMV) treatment in HIV infected patients; cited from earlier work

## Nc1nc(O)c2ncn(COC(CO)CO)c2n1 [Ganciclovir]
HIV
  viability of transduced T cells infected with HIV: increased viability
HIV; in the presence of GCV
  HIV replication: diminished HIV replication
[1]
  toxicity or side effects: without significant toxicity or side effects
